Entries after “also recorded” stand apart in the source; their conditions may differ. No end group written: not given here.
What was measured:
MrgprC11 = molecular target: T1, MrgprC11 (Mus musculus, UniProt Q8CIP3); format: cell-based
T1 sequence (Q8CIP3 1-322): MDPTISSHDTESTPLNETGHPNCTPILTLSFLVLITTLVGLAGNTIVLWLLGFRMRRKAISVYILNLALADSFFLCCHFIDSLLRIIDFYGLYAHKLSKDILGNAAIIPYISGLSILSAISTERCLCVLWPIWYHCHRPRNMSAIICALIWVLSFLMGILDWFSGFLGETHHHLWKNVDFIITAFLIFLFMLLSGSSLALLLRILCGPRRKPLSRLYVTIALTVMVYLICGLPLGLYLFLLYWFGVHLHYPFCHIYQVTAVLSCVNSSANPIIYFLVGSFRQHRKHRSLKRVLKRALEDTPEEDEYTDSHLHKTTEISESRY

human MrgprX1 (hMrgprX1) = human MrgprX1 (hMrgprX1) (Homo sapiens, UniProt Q96LB2); experiment: cell-based; format: cell-based
[1] = system: hMrgprX1;Mrgpr-cluster∆−/− transgenic mouse; conditions: in vivo
mice = conditions: mouse, in vivo; cited from earlier work

Chain of human MrgprX1 (hMrgprX1) (Q96LB2 whole entry, looked up): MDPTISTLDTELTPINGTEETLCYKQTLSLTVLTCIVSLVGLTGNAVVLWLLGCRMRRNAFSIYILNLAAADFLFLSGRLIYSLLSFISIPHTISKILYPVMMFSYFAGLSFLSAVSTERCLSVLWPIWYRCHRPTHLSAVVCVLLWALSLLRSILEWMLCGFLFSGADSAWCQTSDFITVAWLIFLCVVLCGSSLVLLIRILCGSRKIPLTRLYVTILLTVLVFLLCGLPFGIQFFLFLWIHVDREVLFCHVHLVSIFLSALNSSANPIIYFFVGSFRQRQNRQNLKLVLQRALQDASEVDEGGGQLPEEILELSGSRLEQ

HSGFLLAWSGPRNRFVRF-NH2 [CNF-Vc1]
Activation of MrgprC11 (MrgprC11): activates
Activation of hMrgprX1 (human MrgprX1 (hMrgprX1)): activates
EC50 (human MrgprX1 (hMrgprX1)): 1800 nM
Itch-related scratching after intradermal cheek injection of peptide [1]: induces significant scratching
Behaviour of mice after intracranial injection (mice): renders mice unable to move; also recorded: hypoactive behavior
